Legend:
Format in all cases: in vivo
[1] = test system: bromegrass, downy (downy bromegrass, Bromus tectorum); assay: Test D pre-/postemergence: bromegrass, downy
From the text: (§1) Seeds of plant species selected from bluegrass (annual bluegrass, Poa annua), blackgrass (Alopecurus myosuroides), canarygrass (Phalaris minor), chickweed (common chickweed, Stellaria media), galium (catchweed bedstraw, Galium aparine), bromegrass, downy (downy bromegrass, Bromus tectorum), field poppy (Papaver rhoeas), field violet (Viola arvensis), foxtail, green (green foxtail, Setaria viridis), deadnettle (henbit deadnettle, Lamium amplexicaule), ryegrass, Italian (Italian ryegrass, Lolium multiflorum), kochia (Kochia scoparia), lambsquarters (Chenopodium album), oilseed rape (Brassica napus), pigweed (Amaranthus retroflexus), Russian thistle (Salsola iberica), chamomile (scentless chamomile, Matricaria inodora), speedwell (bird's-eye speedwell, Veronica persica), barley, spring (spring barley, Hordeum vulgare), wheat, spring (spring wheat, Triticum aestivum), buckwheat, wild (wild buckwheat, Polygonum convolvulus), mustard, wild (wild mustard, Sinapis arvensis), oat, wild (wild oat, Avena fatua), radish, wild (wild radish, Raphanus raphanistrum), windgrass (Apera spica-venti), barley, winter (winter barley, Hordeum vulgare), and wheat, winter (winter wheat, Triticum aestivum) were planted into a silt loam soil and treated preemergence with test chemicals formulated in a non-phytotoxic solvent mixture which included a surfactant. At the same time, these same crop and weed species were planted in pots containing the planting medium comprising spaghnum peat moss, vermiculite, wetting agent and starter nutrients and treated with postemergence applications of the test chemicals formulated in the same manner. Plants ranged in height from 2 to 18 cm (1- to 4-leaf stage).
(§2) Treated plants and controls were maintained in a controlled growth environment for 14 to 21 days after which time all species were compared to controls and visually evaluated. Plant response ratings, summarized in Table D, are based on a scale of 0 to 100 where 0 is no effect and 100 is complete control. A dash (-) response means no test result.

[2] = test system: wheat, winter (winter wheat, Triticum aestivum); assay: Test D pre-/postemergence: wheat, winter
From the text: as §1, §2

[3] = test system: surinam grass (Brachiaria decumbens); assay: Test C pre-/postemergence: surinam grass
From the text: Seeds of plant species selected from blackgrass (Alopecurus myosuroides), bromegrass, downy (downy bromegrass, Bromus tectorum), foxtail, green (green foxtail, Setaria viridis), ryegrass, Italian (Italian ryegrass, Lolium multiflorum), winter wheat (Triticum aestivum), wild oat (Avena fatua), galium (catchweed bedstraw, Galium aparine), bermudagrass (Cynodon dactylon), surinam grass (Brachiaria decumbens), cocklebur (common cocklebur, Xanthium strumarium), corn (Zea mays), large crabgrass (Digitaria sanguinalis), woolly cupgrass (Eriochloa villosa), foxtail, giant (giant foxtail, Setaria faberii), goosegrass (Eleusine indica), johnsongrass (Sorghum halepense), kochia (Kochia scoparia), lambsquarters (Chenopodium album), morningglory (Ipomoea coccinea), nightshade (eastern black nightshade, Solanum ptycanthum), nutsedge, yellow (yellow nutsedge, Cyperus esculentus), pigweed (Amaranthus retroflexus), ragweed (common ragweed, Ambrosia elation), soybean (Glycine max), common (oilseed) sunflower (Helianthus annuus), Russian thistle (Salsola kali) and velvetleaf (Abutilon theophrasti) were planted into a blend of loam soil and sand and treated preemergence with test chemicals formulated in a non-phytotoxic solvent mixture which included a surfactant.
At the same time, plants selected from these crop and weed species and also barley (winter barley, Hordeum vulgare), canarygrass (Phalaris minor), chickweed (common chickweed, Stellaria media) windgrass (Apera spica-venti) and deadnettle (henbit deadnettle, Lamium amplexicaule) were planted in pots containing Redi-Earth® planting medium (Scotts Company, 14111 Scottslawn Road, Marysville, Ohio 43041) comprising spaghnum peat moss, vermiculite, wetting agent and starter nutrients and treated with postemergence applications of test chemicals formulated in the same manner. Plants ranged in height from 2 to 18 cm (1- to 4-leaf stage) for postemergence treatments.
as §2, with “greenhouse” for “controlled growth environment”, “13” for “14”, “15 days,” for “21 days”, “C,” for “D,”

[4] = test system: crabgrass, large (large crabgrass, Digitaria sanguinalis); assay: Test F pre-/postemergence: crabgrass, large; settings: Preemergence
From the text: Seeds of plant species selected from corn (Zea mays), soybean (Glycine max), velvetleaf (Abutilon theophrasti), lambsquarters (Chenopodium album), poinsettia, wild (wild poinsettia, Euphorbia heterophylla), pigweed, palmer (palmer pigweed, Amaranthus palmeri), waterhemp (common waterhemp, Amaranthus rudis), surinam grass (Brachiaria decumbens), crabgrass, Brazil (Brazilian crabgrass, Digitaria horizontalis), panicum, fall (fall panicum Panicum dichotomiflorum), crabgrass, large (large crabgrass, Digitaria sanguinalis), foxtail, giant (giant foxtail, Setaria faberii), foxtail, green (green foxtail Setaria viridis), goosegrass (Eleusine indica), ragweed (common ragweed, Ambrosia elatior), barnyardgrass (Echinochloa crus-galli), sandbur (southern sandbur, Cenchrus echinatus), arrowleaf sida (Sida rhombifolia), ryegrass, Italian (Italian ryegrass, Lolium multiflorum), dayflower, VA (Virginia (VA) dayflower, Commelina virginica), field bindweed (Convolvulus arvensis), cocklebur (common cocklebur, Xanthium strumarium), morningglory (Ipomoea coccinea), nightshade (eastern black nightshade, Solanum ptycanthum), kochia (Kochia scoparia), nutsedge, yellow (yellow nutsedge, Cyperus esculentus), johnsongrass (Sorghum halepense), smartweed (ladysthumb smartweed, Polygonum persicaria), and beggarticks (hairy beggarticks, Bidens pilosa), were planted into a silt loam soil and treated preemergence with test chemicals formulated in a non-phytotoxic solvent mixture which included a surfactant. At the same time, plants selected from these crop and weed species and also pigweed (Amaranthus retroflexus), waterhemp_RES1 (ALS/Triazine resistant common waterhemp, Amaranthus rudis) and waterhemp_RES2 (ALS/HPPD resistant common waterhemp, Amaranthus rudis) were planted in pots containing a planting medium comprising spaghnum peat moss, vermiculite, wetting agent and starter nutrients treated with postemergence applications of some of the test chemicals formulated in the same manner. Plants ranged in height from 2 to 18 cm for postemergence treatments (1- to 4-leaf stage).
as §2, with “greenhouse” for “controlled growth environment”, “days,” for “days”, “E,” for “D,”

[5] = Postemergence, 31 g ai/ha, scale 0 to 100 (0 no effect, 100 complete control)
[6] = Postemergence, 62 g ai/ha, scale 0 to 100 (0 no effect, 100 complete control)
[7] = Postemergence, 125 g ai/ha, scale 0 to 100, 0 no effect, 100 complete control
[8] = Postemergence, 250 g ai/ha, scale 0 to 100 (0 no effect, 100 complete control)
[9] = Postemergence, 16 g ai/ha, scale 0 to 100
[10] = Preemergence, 16 g ai/ha, scale 0 to 100, 0 no effect, 100 complete control
[11] = Preemergence, 31 g ai/ha, scale 0 to 100, 0 no effect, 100 complete control
[12] = Preemergence, 62 g ai/ha, scale 0 to 100
[13] = Preemergence, 125 g ai/ha, scale 0 to 100
[14] = Preemergence, 250 g ai/ha, scale 0 to 100
[15] = Postemergence, 250 g ai/ha, scale 0 to 100
[16] = Preemergence, 31 g ai/ha, scale of 0 to 100, 0 is no effect, 100 is complete control
[17] = Preemergence, 62 g ai/ha, scale of 0 to 100, 0 is no effect, 100 is complete control
[18] = Preemergence, 125 g ai/ha, scale 0 to 100, 0 no effect, 100 complete control
[19] = Preemergence, 250 g ai/ha, scale 0 to 100, 0 no effect, 100 complete control
[20] = 16 g ai/ha, scale 0 to 100, 0 no effect, 100 complete control
[21] = 31 g ai/ha, scale 0 to 100, 0 no effect, 100 complete control

| SMILES | Plant response rating: Bromegrass, Downy [1, 5] | Plant response rating: Bromegrass, Downy [1, 6] | Plant response rating: Bromegrass, Downy [1, 7] | Plant response rating, Bromegrass, Downy [1, 9] | Plant response rating: Wheat, Winter [2, 5] | Plant response rating: Wheat, Winter [2, 6] | Plant response rating: Wheat, Winter [2, 7] | Plant response rating, Wheat, Winter [2, 9] | Plant response rating, Surinam Grass [3, 5] | Plant response rating, Surinam Grass [3, 6] | Plant response rating, Surinam Grass [3, 7] | Plant response rating, Surinam Grass [3, 15] | Plant response rating, Surinam Grass [3, 16] | Plant response rating, Surinam Grass [3, 17] | Plant response rating, Surinam Grass [3, 18] | Plant response rating, Surinam Grass [3, 19] | Plant response rating, Crabgrass, Large [4, 20] | Plant response rating, Crabgrass, Large [4, 21] | Plant response rating, Crabgrass, Large ([4]; 62 g ai/ha, scale 0 to 100) | Plant response rating, Crabgrass, Large ([4]; 125 g ai/ha, scale 0 to 100) | other results |
| --- | --- | --- | --- | --- | --- | --- | --- | --- | --- | --- | --- | --- | --- | --- | --- | --- | --- | --- | --- | --- | --- |
| Cc1nn(-c2ccc(C(F)(F)F)cc2)nc1Oc1ccnc(C(F)(F)F)c1 [Compound 120] | 10 | 10 | 20 | 5 | 5 | 10 | 15 | 5 | 5 | 5 | 20 | 20 | 65 | 95 | 98 | 100 | – | – | – | – | Plant response rating: Bromegrass, Downy [1, 8]: 25; Plant response rating, Bromegrass, Downy [1, 10]: 0; Plant response rating, Bromegrass, Downy [1, 11]: 0; Plant response rating, Bromegrass, Downy [1, 12]: 5; Plant response rating, Bromegrass, Downy [1, 13]: 25; Plant response rating, Bromegrass, Downy [1, 14]: 60; Plant response rating: Wheat, Winter [2, 8]: 20; Plant response rating, Wheat, Winter [2, 10]: 0; Plant response rating, Wheat, Winter [2, 11]: 0; Plant response rating, Wheat, Winter [2, 12]: 5; Plant response rating, Wheat, Winter [2, 13]: 5; Plant response rating, Wheat, Winter [2, 14]: 10 |
| COc1nn(-c2ccc(C(F)(F)F)cc2)nc1Cc1ccnc(C(F)F)c1 [Compound 138] | 20 | 30 | 40 | 10 | 20 | 20 | 20 | 10 | 45 | 50 | 65 | – | 55 | 80 | 85 | 100 | – | – | – | – | Plant response rating: Bromegrass, Downy [1, 8]: 50; Plant response rating: Wheat, Winter [2, 8]: 25 |
| COc1nn(-c2cccc(F)c2)nc1Cc1ccnc(C(F)(F)F)c1 [Compound 139] | – | – | – | – | – | – | – | – | 10 | 35 | 35 | 40 | 15 | 65 | 85 | 98 | 30 | 95 | 95 | 100 | Plant response rating, Crabgrass, Large ([4]; 250 g ai/ha, scale 0 to 100): 100 |
| Cc1nn(-c2ccc(F)cc2F)nc1Oc1ccnc(C(F)(F)F)c1 [Compound 146] | – | – | – | – | – | – | – | – | – | – | – | – | 10 | 20 | 100 | 100 | 0 | 75 | 98 | 98 | Plant response rating, Crabgrass, Large ([4]; 250 g ai/ha, scale 0 to 100): 100 |
| Cc1nn(-c2ccc(C(F)(F)F)c(F)c2)nc1Oc1ccnc(C(F)(F)F)c1 [Compound 148] | 5 | 15 | 20 | 5 | 10 | 15 | 25 | 10 | 20 | 20 | 25 | 30 | 60 | 75 | 75 | 100 | 95 | 100 | 100 | 100 | Plant response rating, Bromegrass, Downy [1, 10]: 0; Plant response rating, Bromegrass, Downy [1, 11]: 0; Plant response rating, Bromegrass, Downy [1, 12]: 10; Plant response rating, Bromegrass, Downy [1, 13]: 20; Plant response rating, Wheat, Winter [2, 10]: 0; Plant response rating, Wheat, Winter [2, 11]: 5; Plant response rating, Wheat, Winter [2, 12]: 0; Plant response rating, Wheat, Winter [2, 13]: 10; Plant response rating, Crabgrass, Large ([4]; 250 g ai/ha, scale 0 to 100): 100 |

— patent US9302999B2, “Substituted triazoles as herbicides” (E. I. DU PONT DE NEMOURS AND COMPANY, priority 2012, dated 2016)
